Measured values taken from EP2727911B1, “Novel means and methods for treating malaria and other parasitic disorders” (Medizinische Hochschule Hannover, priority 2012, dated 2014).
Structures can show the parent of a compound that is named as a salt.

Target: T1, Dd myosin-1b (Dictyostelium discoideum, UniProt P34092)
T1 sequence (P34092 1-1111): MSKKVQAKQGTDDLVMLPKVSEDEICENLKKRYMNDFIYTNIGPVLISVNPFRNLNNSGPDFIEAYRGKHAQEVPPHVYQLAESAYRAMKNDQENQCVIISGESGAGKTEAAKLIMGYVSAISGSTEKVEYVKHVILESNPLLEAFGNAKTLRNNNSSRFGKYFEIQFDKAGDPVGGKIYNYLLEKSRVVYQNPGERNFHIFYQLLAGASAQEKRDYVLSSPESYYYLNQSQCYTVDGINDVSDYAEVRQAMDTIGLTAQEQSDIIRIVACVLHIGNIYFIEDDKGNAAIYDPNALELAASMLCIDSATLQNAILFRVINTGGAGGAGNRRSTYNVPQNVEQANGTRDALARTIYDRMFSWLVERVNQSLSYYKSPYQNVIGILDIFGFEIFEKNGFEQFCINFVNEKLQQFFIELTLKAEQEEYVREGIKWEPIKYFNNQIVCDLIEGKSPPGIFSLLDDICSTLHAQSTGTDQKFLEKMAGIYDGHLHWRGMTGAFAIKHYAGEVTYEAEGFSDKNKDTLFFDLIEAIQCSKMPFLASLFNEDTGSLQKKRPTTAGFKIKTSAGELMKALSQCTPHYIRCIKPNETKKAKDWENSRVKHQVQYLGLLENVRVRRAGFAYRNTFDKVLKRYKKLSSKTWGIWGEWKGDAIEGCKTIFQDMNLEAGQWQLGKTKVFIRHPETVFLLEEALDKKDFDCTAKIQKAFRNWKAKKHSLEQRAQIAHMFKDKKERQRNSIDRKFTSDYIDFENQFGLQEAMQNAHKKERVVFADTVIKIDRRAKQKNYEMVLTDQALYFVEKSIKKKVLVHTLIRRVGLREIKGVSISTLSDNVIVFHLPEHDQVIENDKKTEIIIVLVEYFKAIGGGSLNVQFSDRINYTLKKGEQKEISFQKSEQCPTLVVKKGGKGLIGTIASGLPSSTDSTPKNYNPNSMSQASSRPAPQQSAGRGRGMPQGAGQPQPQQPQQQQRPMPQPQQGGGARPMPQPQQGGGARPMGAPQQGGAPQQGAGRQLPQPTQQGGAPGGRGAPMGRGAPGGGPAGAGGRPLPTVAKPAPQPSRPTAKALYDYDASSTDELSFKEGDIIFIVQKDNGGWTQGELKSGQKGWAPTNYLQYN
Assay: Actin-activated steady state ATPase assay (PK/LDH-coupled, photometric)
Format: biochemical
Settings: in the presence of 30 µM F-actin, nonlinear regression
Protocol: In this assay, the ATPase activity of Dictyostelium discoideum myosin-1b is determined, preferably at a ligand concentration of 25µM. Furthermore, the IC50 concentration has been determined by measuring ATPase activity as a function of inhibitor concentration. Alternatively Dictyostelium discoideum myosin-2 can be used.
Actin-activated steady state ATPase experiments were performed following the absorbance change during NADH oxidation in a PK/LDH-coupled ATPase assay at 340 nm […] (Trentham (1972); Furch (1998)). The photometric steady state ATPase assay was applied to determine the potency of the small molecule compounds to inhibit the enzymatic activity of myosin. Dd myosin-1b was used as a model system for the target protein (Pf myosin A). All experiments were carried out in the presence of 30 µM F-actin and the corresponding half-maximal inhibitory concentrations (IC50) were determined by nonlinear regression.

IC50: 8.07 ± 0.8 µM
SMILES: COC(=N)Cc1ccc(O)cc1 [BIP13, Methyl-2-(4-hydroxyphenyl)acetimidate·hydrochloride]
